Data: PubChem BioAssay (NCI)
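GI50 marks 50% less growth. TGI: total growth inhibition.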

Experiments:
Assay in all cases: DTP human tumour cell line panel, 384-well format
KM12 colon = test system: KM12 colon
SW-620 colon = test system: SW-620 colon
OVCAR-8 ovarian = test system: OVCAR-8 ovarian
EKVX NSCLC = test system: EKVX NSCLC
SF-295 CNS = test system: SF-295 CNS
HCC-2998 colon = test system: HCC-2998 colon
HOP-62 NSCLC = test system: HOP-62 NSCLC
MDA-MB-468 breast = test system: MDA-MB-468 breast
SK-OV-3 ovarian = test system: SK-OV-3 ovarian
NCI-H460 NSCLC = test system: NCI-H460 NSCLC
CCRF-CEM leukemia = test system: CCRF-CEM leukemia
NCI-H522 lung = test system: NCI-H522 lung
HCT-15 colon = test system: HCT-15 colon
MOLT-4 leukemia = test system: MOLT-4 leukemia
COLO 205 colon = test system: COLO 205 colon
LOX IMVI melanoma = test system: LOX IMVI melanoma
M14 melanoma = test system: M14 melanoma
RPMI-8226 leukemia = test system: RPMI-8226 leukemia
CAKI-1 renal = test system: CAKI-1 renal
T-47D breast = test system: T-47D breast
A549 NSCLC = test system: A549 NSCLC
SK-MEL-28 melanoma = test system: SK-MEL-28 melanoma
K-562 leukemia = test system: K-562 leukemia
SNB-19 CNS = test system: SNB-19 CNS
786-0 renal = test system: 786-0 renal
OVCAR-3 ovarian = test system: OVCAR-3 ovarian
OVCAR-4 ovarian = test system: OVCAR-4 ovarian
A498 renal = test system: A498 renal
OVCAR-5 ovarian = test system: OVCAR-5 ovarian
UACC-257 melanoma = test system: UACC-257 melanoma
SK-MEL-5 melanoma = test system: SK-MEL-5 melanoma
SK-MEL-2 melanoma = test system: SK-MEL-2 melanoma
UACC-62 melanoma = test system: UACC-62 melanoma
HOP-92 NSCLC = test system: HOP-92 NSCLC
IGROV1 ovarian = test system: IGROV1 ovarian
MCF7 breast = test system: MCF7 breast
NCI-H226 lung = test system: NCI-H226 lung
SN12C renal = test system: SN12C renal
MDA-MB-231 breast = test system: MDA-MB-231 breast
BT-549 breast = test system: BT-549 breast
SF-539 CNS = test system: SF-539 CNS
U251 glioblastoma = test system: U251 glioblastoma
TK-10 renal = test system: TK-10 renal
HT29 colon = test system: HT29 colon
HL-60(TB) leukemia = test system: HL-60(TB) leukemia
NCI-H322M lung = test system: NCI-H322M lung
NCI/ADR-RES ovarian = test system: NCI/ADR-RES ovarian
PC-3 prostate = test system: PC-3 prostate
ACHN renal = test system: ACHN renal
NCI-H23 lung = test system: NCI-H23 lung
SNB-75 CNS = test system: SNB-75 CNS
MALME-3M melanoma = test system: MALME-3M melanoma
HCT-116 colon = test system: HCT-116 colon
MDA-MB-435 melanoma = test system: MDA-MB-435 melanoma
SF-268 CNS = test system: SF-268 CNS
UO-31 renal = test system: UO-31 renal
DU-145 prostate = test system: DU-145 prostate
RXF 393 renal = test system: RXF 393 renal
HS 578T breast = test system: HS 578T breast

Work on `CCn1nc(C2CCN(C(=O)CCO)CC2)nc1-c1cnc(N)c(-c2nnc(C(C)(C)C)o2)n1` yielded a GI50 (KM12 colon) of 13.3 µM, a TGI (KM12 colon) of 32.3 µM and a GI50 (SW-620 colon) of 34.4 µM. The TGI (SW-620 colon) was over 100 µM, the GI50 (OVCAR-8 ovarian) was 29.8 µM and the TGI (OVCAR-8 ovarian) was over 100 µM. For the same compound, the GI50 (EKVX NSCLC) was 3.08 µM, the TGI (EKVX NSCLC) was 30 µM and the GI50 (SF-295 CNS) was 0.993 µM. For the same compound, the TGI (SF-295 CNS) was over 100 µM, the GI50 (HCC-2998 colon) was 7.79 µM and the TGI (HCC-2998 colon) was 47 µM. For the same compound, the GI50 (HOP-62 NSCLC) was 42.7 µM, the TGI (HOP-62 NSCLC) was over 100 µM and the GI50 (MDA-MB-468 breast) was 2.8 µM. It also gave a TGI (MDA-MB-468 breast) of 17.1 µM, a GI50 (SK-OV-3 ovarian) of 0.599 µM and a TGI (SK-OV-3 ovarian) of 14.8 µM. It also gave a GI50 (NCI-H460 NSCLC) of 1.19 µM, a TGI (NCI-H460 NSCLC) of over 100 µM and a GI50 (CCRF-CEM leukemia) of 6.7 µM. The TGI (CCRF-CEM leukemia) was 23.4 µM, the GI50 (NCI-H522 lung) was 15.1 µM and the TGI (NCI-H522 lung) was 38.6 µM. It also gave a GI50 (HCT-15 colon) of 15.8 µM, a TGI (HCT-15 colon) of over 100 µM and a GI50 (MOLT-4 leukemia) of 1.11 µM. The TGI (MOLT-4 leukemia) was 8.87 µM, the GI50 (COLO 205 colon) was 6.8 µM and the TGI (COLO 205 colon) was 23.9 µM. For the same compound, the GI50 (LOX IMVI melanoma) was 10.1 µM, the TGI (LOX IMVI melanoma) was 23.8 µM and the GI50 (M14 melanoma) was 16 µM. The TGI (M14 melanoma) was over 100 µM, the GI50 (RPMI-8226 leukemia) was 16.5 µM and the TGI (RPMI-8226 leukemia) was 30.9 µM. The GI50 (CAKI-1 renal) was 4.7 µM, the TGI (CAKI-1 renal) was over 100 µM and the GI50 (T-47D breast) was 0.17 µM. It also gave a TGI (T-47D breast) of 0.832 µM, a GI50 (A549 NSCLC) of 5.24 µM and a TGI (A549 NSCLC) of over 100 µM. It also gave a GI50 (SK-MEL-28 melanoma) of 5.59 µM, a TGI (SK-MEL-28 melanoma) of over 100 µM and a GI50 (K-562 leukemia) of 17.3 µM. For the same compound, the TGI (K-562 leukemia) was 44.7 µM, the GI50 (SNB-19 CNS) was 35.2 µM and the TGI (SNB-19 CNS) was over 100 µM. The GI50 ([…]-0 renal) was 7.59 µM, the TGI (786-0 renal) was over 100 µM and the GI50 (OVCAR-3 ovarian) was 7 µM. The TGI (OVCAR-3 ovarian) was 22.1 µM, the GI50 (OVCAR-4 ovarian) was 32.9 µM and the TGI (OVCAR-4 ovarian) was over 100 µM. The GI50 (A498 renal) was 18.1 µM, the TGI (A498 renal) was over 100 µM and the GI50 (OVCAR-5 ovarian) was 10.7 µM. The TGI (OVCAR-5 ovarian) was over 100 µM, the GI50 (UACC-257 melanoma) was 22.2 µM and the TGI (UACC-257 melanoma) was over 100 µM. For the same compound, the GI50 (SK-MEL-5 melanoma) was 8.62 µM, the TGI (SK-MEL-5 melanoma) was 36.9 µM and the GI50 (SK-MEL-2 melanoma) was 17.3 µM. The TGI (SK-MEL-2 melanoma) was over 100 µM, the GI50 (UACC-62 melanoma) was 6.81 µM and the TGI (UACC-62 melanoma) was over 100 µM. The GI50 (HOP-92 NSCLC) was 3.35 µM, the TGI (HOP-92 NSCLC) was over 100 µM and the GI50 (IGROV1 ovarian) was 0.32 µM. It also gave a TGI (IGROV1 ovarian) of 1.81 µM, a GI50 (MCF7 breast) of 0.2 µM and a TGI (MCF7 breast) of over 100 µM. For the same compound, the GI50 (NCI-H226 lung) was 24.6 µM, the TGI (NCI-H226 lung) was over 100 µM and the GI50 (SN12C renal) was 5.27 µM. The TGI (SN12C renal) was over 100 µM, the GI50 (MDA-MB-231 breast) was 80.9 µM and the TGI (MDA-MB-231 breast) was over 100 µM. It also gave a GI50 (BT-549 breast) of 6.24 µM, a TGI (BT-549 breast) of 54.3 µM and a GI50 (SF-539 CNS) of 16.6 µM. The TGI (SF-539 CNS) was over 100 µM, the GI50 (U251 glioblastoma) was 41.7 µM and the TGI (U251 glioblastoma) was over 100 µM. For the same compound, the GI50 (TK-10 renal) was 2.71 µM, the TGI (TK-10 renal) was 76.4 µM and the GI50 (HT29 colon) was 3.02 µM. It also gave a TGI (HT29 colon) of 25.5 µM, a GI50 (HL-60(TB) leukemia) of 0.377 µM and a TGI (HL-60(TB) leukemia) of 12.2 µM. The GI50 (NCI-H322M lung) was 5 µM, the TGI (NCI-H322M lung) was over 100 µM and the GI50 (NCI/ADR-RES ovarian) was 19.4 µM. The TGI (NCI/ADR-RES ovarian) was 84.1 µM, the GI50 (PC-3 prostate) was 3.65 µM and the TGI (PC-3 prostate) was over 100 µM. It also gave a GI50 (ACHN renal) of 15.5 µM, a TGI (ACHN renal) of over 100 µM and a GI50 (NCI-H23 lung) of 16.7 µM. The TGI (NCI-H23 lung) was 73.7 µM, the GI50 (SNB-75 CNS) was 1.13 µM and the TGI (SNB-75 CNS) was 13.2 µM. It also gave a GI50 (MALME-3M melanoma) of 7.64 µM, a TGI (MALME-3M melanoma) of 59.7 µM and a GI50 (HCT-116 colon) of 23.2 µM. For the same compound, the TGI (HCT-116 colon) was over 100 µM, the GI50 (MDA-MB-435 melanoma) was 11.3 µM and the TGI (MDA-MB-435 melanoma) was over 100 µM. The GI50 (SF-268 CNS) was 24.4 µM, the TGI (SF-268 CNS) was over 100 µM and the GI50 (UO-31 renal) was 4.31 µM. For the same compound, the TGI (UO-31 renal) was 77.2 µM, the GI50 (DU-145 prostate) was 13.7 µM and the TGI (DU-145 prostate) was 100 µM. The GI50 (RXF 393 renal) was 2.42 µM, the TGI (RXF 393 renal) was 15.7 µM and the GI50 (HS 578T breast) was 6.89 µM. For the same compound, the TGI (HS 578T breast) was 31.8 µM.
